Patent US20250101009A1, “Compounds, Compositions and Methods for Treatment of Age-Related Ocular Disorders” (priority 2022, published 2025)

What was measured:
rabbit pupil = assay: Miotic effect in rabbits (pupil diameter); type: in vivo, male New Zealand White rabbits
Procedure: The ocular activity evaluation based on the miotic effect in rabbits
The pupil size was determined for several compounds in male New Zealand White rabbits. Pilocarpine hydrochloride (Vuity™) was used as positive control. The pupillometer was placed in the eye socket of the rabbit, and the camera was taken 0 min before and 5 min, 10 min, 15 min, 30 min, 45 min and 1 h after dosing. For the latter picture, take three photos at each time point. After the experiment, the pictures were sorted out to observe the pupil change trend after dosing. This method can be used to evaluate whether the miotic agent moiety in the compounds of the invention can constrict the rabbit's pupil.
Under a constant light source (light intensity 40 Lux), the rabbits were fixed in the rabbit box without anesthesia. Before the experiment, the pupil diameter (mm) before drug administration was measured with a pupil measuring ruler and photographed. […] The time of administration was recorded, and the pupil diameter was measured with a pupillometer and photographed with Canon EOS M6 Mark II (SLR) after 5 min, 10 min, 15 min, 30 min, 45 min, 1 h, 2 h, 3 h, 4 h and 5 h, respectively. […]

acetylcholinesterase = target: T1, acetylcholinesterase (Homo sapiens, UniProt P22303); assay: Hydrolysis study in vitro with acetylcholinesterase (HPLC); type: in vitro ADME; conditions: for assay of compound remaining during enzymatic hydrolysis: acetylcholinesterase 2.0 mg/ml, simulated tear pH 7.4, 37.5° C.
T1 construct: purchased
T1 sequence (P22303 32-614, species assumed): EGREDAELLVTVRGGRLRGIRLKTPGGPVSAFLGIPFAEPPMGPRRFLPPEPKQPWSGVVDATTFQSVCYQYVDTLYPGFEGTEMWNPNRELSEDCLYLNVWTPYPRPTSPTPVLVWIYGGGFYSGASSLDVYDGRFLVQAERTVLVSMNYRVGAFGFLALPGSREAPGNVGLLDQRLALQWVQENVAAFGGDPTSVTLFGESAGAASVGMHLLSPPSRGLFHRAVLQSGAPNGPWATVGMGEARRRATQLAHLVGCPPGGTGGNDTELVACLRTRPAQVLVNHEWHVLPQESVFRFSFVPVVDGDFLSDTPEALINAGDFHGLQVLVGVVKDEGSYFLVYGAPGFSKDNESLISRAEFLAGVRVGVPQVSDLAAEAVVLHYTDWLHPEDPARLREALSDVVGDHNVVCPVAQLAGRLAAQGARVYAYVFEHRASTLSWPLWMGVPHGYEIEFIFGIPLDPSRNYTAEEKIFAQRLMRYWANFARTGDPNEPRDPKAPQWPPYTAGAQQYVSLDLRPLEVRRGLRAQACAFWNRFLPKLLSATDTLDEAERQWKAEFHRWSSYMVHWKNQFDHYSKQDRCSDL
Procedure: The commercial esterase was dissolved in simulated tear (pH 7.4). Dissolving an appropriate amount of the compounds of the invention in solvent. The stock solutions were kept in screw-capped vials at 4° C. The reaction was initiated by adding stock solution of the prodrug to preheated esterase solution in a screw-capped vial at 37.5° C. The solution was kept in a water bath at 37.5° C. and at appropriate time intervals. 20 mL aliquot was taken and, after filtration using membrane syringe filter, analyzed immediately by HPLC.
The tear fluid was prepared by dissolving sodium chloride (0.67%, w/v), sodium bicarbonate (0.2% w/v) and calcium chloride dihydrate (0.008% w/v) in water and pH was adjusted to 7.4.
(§1) The acetylcholinesterase was dissolved in simulated tear (pH 7.4) to give a concentration of 2.0 mg/ml. Dissolving the appropriate number of compound 1 in pH 7.0 buffer solution to obtain a concentration of […]. The stock solutions were kept in screw-capped vials at 4° C. The reaction was initiated by adding 20 uL of a stock solution of the compound 1 in pH 7.0 buffer solution to 1 ml of preheated esterase solution in a screw-capped vial at 37.5° C., for a total of 10 identical reaction solutions. The reaction solutions were kept in a water bath at 37.5° C. and at 20 min intervals an aliquot was taken and, after filtration using membrane syringe filter, analyzed immediately by HPLC.
as §1, with “compound 2” for “compound 1”, “20 μL” for “20 uL”, “of 11” for “of 10”
as §1, with “compound 3” for “compound 1”, “20 μL” for “20 uL”, “1 mL” for “1 ml”, “of 12” for “of 10”

[1] = assay decreased more with increasing time

SMILES | rabbit pupil under treatment (recorded images) (rabbit pupil) | miotic effect in rabbits versus positive control (rabbit pupil; 1.25%, 20 μL/eye topical, compared with Vuity 1.25%) | assay of compound remaining during enzymatic hydrolysis (acetylcholinesterase; 0 min) | assay of compound remaining during enzymatic hydrolysis (acetylcholinesterase; 20 min) | assay of compound remaining during enzymatic hydrolysis (acetylcholinesterase; 40 min) | assay of compound remaining during enzymatic hydrolysis (acetylcholinesterase; 60 min) | assay of compound remaining during enzymatic hydrolysis (acetylcholinesterase; 80 min) | assay of compound remaining during enzymatic hydrolysis (acetylcholinesterase; 100 min) | assay of compound remaining during enzymatic hydrolysis (acetylcholinesterase; 120 min) | assay of compound remaining during enzymatic hydrolysis (acetylcholinesterase; 140 min) | assay of compound remaining during enzymatic hydrolysis (acetylcholinesterase; 160 min) | assay of compound remaining during enzymatic hydrolysis (acetylcholinesterase; 180 min) | assay of compound remaining during enzymatic hydrolysis (acetylcholinesterase; 200 min) | hydrolysis by acetylcholinesterase (in words) (acetylcholinesterase; after 200 minutes) | assay of compound remaining during enzymatic hydrolysis (acetylcholinesterase; 220 min) | hydrolysis by acetylcholinesterase (in words) (acetylcholinesterase; [1]) | assay of compound remaining during enzymatic hydrolysis (acetylcholinesterase; 240 min)
CC[C@@H]1C(=O)OC[C@@H]1Cc1c[n+](COC(=O)CCCC[C@@H]2CCSS2)cn1C [Compound 1, 3-(((5-((R)-1,2-dithiolan-3-yl)pentanoyl)oxy)methyl)-5-(((3R,4S)-4-ethyl-5-oxotetrahydrofuran-3-yl)methyl)-1-methyl-1H-imidazol-3-ium chloride] | shrinking | comparable to the positive control drug | 70.29% | 56.17% | 34.03% | 30.13% | 19.93% | 17.19% | 15.06% | 11.77% | 8.45% | 6.94% | 5.05% | hydrolyzed by acetylcholinesterase almost completely |  |  | 
CC[C@@H]1C(=O)OC[C@@H]1Cc1c[n+](CCOC(=O)CCCC[C@@H]2CCSS2)cn1C [Compound 2, 3-(2-((5-((R)-1,2-dithiolan-3-yl)pentanoyl)oxy)ethyl)-5-(((3R,4S)-4-ethyl-5-oxotetrahydrofuran-3-yl)methyl)-1-methyl-1H-imidazol-3-ium chloride] |  |  | 100.00% | 95.69% | 88.08% | 86.47% | 80.61% | 77.56% | 75.40% | 72.81% | 68.28% | 65.90% | 63.68% |  | 60.88% | hydrolyzed by acetylcholinesterase | 
CC[C@@H]1C(=O)OC[C@@H]1Cc1c[n+](CCOCCOCCOC(=O)CCCC[C@@H]2CCSS2)cn1C [Compound 3, 3-(2-(2-(2-((5-((R)-1,2-dithiolan-3-yl)pentanoyl)oxy)ethoxy)ethoxy)ethyl)-5-(((3R,4S)-4-ethyl-5-oxotetrahydrofuran-3-yl)methyl)-1-methyl-1H-imidazol-3-ium] |  |  | 95.40% | 88.83% | 88.26% | 79.40% | 75.30% | 70.87% | 68.62% | 63.48% | 62.92% | 59.60% | 54.50% |  | 55.89% | hydrolyzed by acetylcholinesterase | 51.61%
